Structures can show the parent of a compound that is named as a salt. Where two headings read alike, the source gives them in different places.

Test [1] deals with pseudotyped lentiviruses harboring S-protein of SARS-CoV-2. Kind of test: microbe, parasite or virus in culture. Type of test: cell-based.
For test [2], the system named is pseudotyped viruses carrying E484K mutation in S protein. Type of test: cell-based, SARS-CoV-2.
Test [3] deals with pseudotyped viruses carrying N501Y mutation in S protein. The test is classed as cell-based, SARS-CoV-2.
Test [4] has as its system pseudotyped viruses carrying K417N mutation in S protein. The test is classed as cell-based, SARS-CoV-2.
Test [5] deals with pseudotyped viruses, triple mutant (N501Y/K417N/E484K) S protein. Type of test: cell-based, SARS-CoV-2.
Where [6] appears, read: Severe acute respiratory syndrome coronavirus 2, 24 h.

For `COc1ccc(C2CNC(=O)C2)cc1OC1CCCC1` (centres unmarked) [Rolipram], in test [1], the “luciferase reporter activity (viral infection)” value is on record as “failed to prevent the viral entry”.
On to `CN(C)CCCN1c2ccccc2Sc2ccc(Cl)cc21` [Chlorpromazine], for which, in test [1], the IC50 – broadly, the concentration at which inhibition is half-maximal – amounted to 0.972 µM and the “luciferase reporter activity (viral infection)” value is recorded as “Decline of luciferase reporter activity”. In addition, the “effectiveness against SARS-CoV-2 spike pseudotyped viruses compared with VSV-G pseudotyped viruses (luciferase activity)” value in test [1] (24 h) was “more effective”. The compound further showed an IC50 in test [1] (setting [6]) of 0.973 µM.
For the compound `N[C@]1(c2ccccc2Cl)CCC[C@H](O)C1=O` [2S,6S-HNK, 2S, 6S-Hydroxynorketamine], in test [1], the “luciferase reporter activity (viral infection)” value was “neither ketamine nor the metabolites were effective”.
On to `COc1ccc(C(CN(C)C)C2(O)CCCCC2)cc1` (centres unmarked) [Venlafaxine], for which the “luciferase reporter activity (viral infection)” value in test [1] is “significantly reduced luciferase reporter activity”. For the same compound, the midpoint of inhibition in test [1] (setting [6]), the IC50, lay at 36.4 µM.
With `NC(=O)N1c2ccccc2C=Cc2ccccc21` [Carbamazepine], in test [1], the “luciferase reporter activity (viral infection)” value is “failed to change the viral infection”.
With `CN(C)CCCN1c2ccccc2CCc2ccccc21` [Imipramine], in test [1], 3 µM corresponded to half-maximal inhibition (IC50), the “luciferase reporter activity (viral infection)” value is “significantly reduced luciferase reporter activity” and the “selectivity index (SI)” value was 22.83. Further, half-maximal inhibition in test [1] (setting [6]) (IC50) was put at 3.01 µM.
In the case of `NNCCc1ccccc1` [Phenelzine], the “luciferase reporter activity (viral infection)” value in test [1] is reported as “failed to prevent the viral entry”.
Consider `CN(C)CCCN1c2ccccc2CCc2ccc(Cl)cc21` [Clomipramine], for which, in test [1], the “effectiveness against SARS-CoV-2 spike pseudotyped viruses compared with VSV-G pseudotyped viruses (luciferase activity)” value was “more effective” and the “luciferase reporter activity (viral infection)” value is recorded as “significantly reduced luciferase reporter activity”.
For the compound `OCCN1CCN(CCC=C2c3ccccc3Sc3ccc(C(F)(F)F)cc32)CC1` [Flupenthixol], in test [1], the “luciferase reporter activity (viral infection)” value is “Decline of luciferase reporter activity” and the “selectivity index (SI)” value stood at 18.11. Also, the “effectiveness against SARS-CoV-2 spike pseudotyped viruses compared with VSV-G pseudotyped viruses (luciferase activity)” value in test [1] (24 h) is on record as “more effective”. Moreover, the IC50 in test [1] (setting [6]) was determined as 1.07 µM.
For `CN(C)CCCC1(c2ccc(F)cc2)OCc2cc(C#N)ccc21` (centres unmarked) [Citalopram] the same measures were “significantly reduced luciferase reporter activity”, 9.97, “more effective” and 27.5 µM.
Turning to `CNC1(c2ccccc2Cl)CCCCC1=O` (centres unmarked) [Ketamine], the “luciferase reporter activity (viral infection)” value in test [1] was “neither ketamine nor the metabolites were effective”.
Consider `CNCCC(Oc1ccc(C(F)(F)F)cc1)c1ccccc1` (centres unmarked) [Fluoxetine], for which, in test [1], the “effectiveness against SARS-CoV-2 spike pseudotyped viruses compared with VSV-G pseudotyped viruses (luciferase activity)” value was “more effective”; the “luciferase reporter activity (viral infection)” value is “significantly reduced luciferase reporter activity”; the “luciferase reporter activity, WT spike pseudovirus” value is on record as “significantly reduced the luciferase reporter activity”. In test [2], the “luciferase reporter activity, E484K pseudovirus” value is “significantly reduced the luciferase reporter activity”. Besides, the “luciferase reporter activity, N501Y pseudovirus” value in test [3] is listed as “significantly reduced the luciferase reporter activity”. For the same compound, in test [4], the “luciferase reporter activity, K417N pseudovirus” value is recorded as “significantly reduced the luciferase reporter activity”. In addition, in test [5], the “luciferase reporter activity, triple mutant (N501Y/K417N/E484K) pseudovirus” value was “significantly reduced the luciferase reporter activity”.
Turning to `N[C@@]1(c2ccccc2Cl)CCC[C@@H](O)C1=O` [2R,6R-HNK, 2R, 6R-Hydroxynorketamine], the “luciferase reporter activity (viral infection)” value in test [1] is “neither ketamine nor the metabolites were effective”.
As for `CNCCCN1c2ccccc2CCc2ccccc21` [Desipramine], in test [1], the “luciferase reporter activity (viral infection)” value is “significantly reduced luciferase reporter activity”. Besides, the “effectiveness against SARS-CoV-2 spike pseudotyped viruses compared with VSV-G pseudotyped viruses (luciferase activity)” value in test [1] (24 h) is recorded as “more effective”. Further, inhibition in test [1] (setting [6]) was half-maximal at 8.1 µM (IC50).
For `CCOc1ccccc1OC(c1ccccc1)C1CNCCO1` (centres unmarked) [Reboxetine] the same measures were “significantly reduced luciferase reporter activity”, “more effective” and 17.7 µM.
For `Fc1ccc([C@@H]2CCNC[C@H]2COc2ccc3c(c2)OCO3)cc1` [Paroxetine], in test [1], the “luciferase reporter activity (viral infection)” value is listed as “significantly reduced luciferase reporter activity” and the “selectivity index (SI)” value came out at 1.76. Besides, in test [1] (24 h), the “effectiveness against SARS-CoV-2 spike pseudotyped viruses compared with VSV-G pseudotyped viruses (luciferase activity)” value is recorded as “more effective”. Moreover, in test [1] (setting [6]), the IC50 came to 12.6 µM.
In the case of `CN(C)C(=O)COC(=O)Cc1ccc(OC(=O)c2ccc(NC(=N)N)cc2)cc1` [Camostat mesylate], in test [1], the “luciferase reporter activity (viral infection)” value is reported as “significantly reduced”.
As for `O=c1[nH]c2ccccc2n1C1CCN(CCCC(c2ccc(F)cc2)c2ccc(F)cc2)CC1` [Pimozide], the “luciferase reporter activity (viral infection)” value in test [1] is reported as “Decline of luciferase reporter activity”. Also, the “effectiveness against SARS-CoV-2 spike pseudotyped viruses compared with VSV-G pseudotyped viruses (luciferase activity)” value in test [1] (24 h) is “more effective”. The IC50 in test [1] (setting [6]) was determined as 4.54 µM.

The values above are taken from publication PMC8809408 (Frontiers in Pharmacology, 2022).
